Data taken from patent US7449465B2, “Triazolopyrimidine derivatives as glycogen synthase kinase 3 inhibitors” (Janssen Pharmaceutica, N.V., priority 2003, dated 2008).
Structures can show the parent of a compound that is named as a salt.

Assays:
GSK3β = GSK3β (Homo sapiens, UniProt P49841); assay: GSK3beta assay (SPA, biotinylated phosphorylated CREB peptide, ATP-P33); type: biochemical; conditions: ranges of pIC50 (−log IC50 (M)); 1 μM ATP, room temperature, one hour; read-out: GSK3b pIC50 (converted)
GSK3β, sequence (P49841 whole entry, species assumed): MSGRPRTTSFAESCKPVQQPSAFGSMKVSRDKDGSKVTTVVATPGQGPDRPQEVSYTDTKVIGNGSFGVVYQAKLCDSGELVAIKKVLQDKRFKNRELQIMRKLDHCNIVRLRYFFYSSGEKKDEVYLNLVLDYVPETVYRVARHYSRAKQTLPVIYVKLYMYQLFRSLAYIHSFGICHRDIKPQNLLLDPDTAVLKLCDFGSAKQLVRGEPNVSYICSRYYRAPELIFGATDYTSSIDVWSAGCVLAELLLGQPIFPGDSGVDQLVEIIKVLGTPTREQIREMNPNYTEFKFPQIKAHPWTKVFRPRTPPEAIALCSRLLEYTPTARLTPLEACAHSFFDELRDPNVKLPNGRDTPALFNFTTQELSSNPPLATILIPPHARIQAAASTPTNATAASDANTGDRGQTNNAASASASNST
Description: (§1) GSK3beta assays were performed at room temperature in a 100 μl reaction volume of 25 mM Tris (pH 7.4) containing 10 mM MgCl2.6H2O, 1 mM DTI, 0.1 mgiml BSA, 5% glycerol and containing 5.7 ng/μl GSK3β, 5 μM biotinylated phosphorylated CREB peptide, 1 μM ATP, 0.85 μCi/ml ATP-P^33 and a suitable amount of a test compound of formula (I). After one hour, the reaction was terminated by adding 70 μl of Stop mix (0.1 mM ATP, 5 mg/ml streptavidin coated PVT SPA bead pH 11.0). The beads to which the phosphorylated CREB peptide is attached were allowed to settle overnight and the radioactivity of the beads was counted in a microtiterplate scintillation counter and compared with the results obtained in a control experiment (without the presence of a test compound) in order to determine the percentage of GSK3β inhibition. The IC50 value, i.e. the concentration (M) of the test compound at which 50% of GSK3β is inhibited, was calculated from the dose response curve obtained by performing the above-described GSK3β assay in the presence of different amounts of the test compound.

GSK3alpha = GSK3alpha (Homo sapiens, UniProt P49840); assay: GSK3alpha assay (same as the GSK3beta assay, 0.25 ng/μl GSK3alpha); type: biochemical; conditions: ranges of pIC50 (−log IC50 (M)), 1 μM ATP, read-out: GSK3a pIC50 (converted)
GSK3alpha, sequence (P49840 whole entry, species assumed): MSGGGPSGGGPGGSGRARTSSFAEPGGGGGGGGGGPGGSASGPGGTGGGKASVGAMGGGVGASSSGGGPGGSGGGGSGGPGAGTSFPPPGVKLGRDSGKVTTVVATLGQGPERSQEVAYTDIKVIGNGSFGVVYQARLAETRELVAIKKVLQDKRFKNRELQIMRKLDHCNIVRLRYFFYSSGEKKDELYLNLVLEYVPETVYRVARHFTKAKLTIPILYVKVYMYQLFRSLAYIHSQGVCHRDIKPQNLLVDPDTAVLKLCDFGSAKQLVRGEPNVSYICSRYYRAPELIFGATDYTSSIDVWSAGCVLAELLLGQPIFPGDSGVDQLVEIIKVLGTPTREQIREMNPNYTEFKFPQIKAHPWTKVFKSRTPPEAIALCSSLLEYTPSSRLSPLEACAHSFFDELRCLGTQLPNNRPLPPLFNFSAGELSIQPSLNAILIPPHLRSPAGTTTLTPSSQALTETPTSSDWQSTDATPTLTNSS
Description: as §1
The GSK3alpha assay was performed in the same way as described above for the GSK3beta assay except for the concentration of GSK3alpha which is 0.25 ng/μl.

Row | SMILES | melting point [°C] | IC50 (GSK3β) [M] | IC50 (GSK3alpha) [M]
1 | Cn1nccc1-c1cccc(Nc2ncc3nnn(-c4ccccc4)c3n2)c1 [Compound 9] | 216 | < 1e-08 | < 1e-08
2 | O=[N+]([O-])c1cc(Nc2ncc3nnn(C4CCCCC4)c3n2)ccc1N1CCOCC1 [Compound 5] | 161.9 | 1e-08 to 1e-07 | 
3 | O=c1[nH]nc(-c2cccc(Nc3ncc4nnn(-c5cccc(F)c5)c4n3)c2)[nH]1 [Compound 1] | > 260 | < 1e-08 | < 1e-08
4 | CN1CCN(c2ccc(Nc3ncc4nnn(-c5cccc(CC#N)c5)c4n3)cc2)CC1 [Compound 88] | 210 to 212 | < 1e-08 | < 1e-08
5 | N#CCc1cccc(-n2nnc3cnc(Nc4cccc(-c5ccnc(N)n5)c4)nc32)c1 [Compound 87] | > 260 | < 1e-08 | < 1e-08
6 | OCc1cccc(-n2nnc3cnc(Nc4cccc(-c5cnco5)c4)nc32)c1 [Compound 96] | 210 to 214 | < 1e-08 | < 1e-08
7 | CN1CCN(c2cccc(Nc3ncc4nnn(-c5cccc(F)c5)c4n3)c2)CC1 (as salt: HCl) [Compound 36] | > 250 |  | 
8 | CN1CCN(c2ccc(Nc3ncc4nnn(C5CCCCC5)c4n3)cc2)CC1 [Compound 4] | 167 |  | 
9 | COc1cccc(-n2nnc3cnc(Nc4cccc(-c5ccnc(N)n5)c4)nc32)c1 [Compound 19] |  | < 1e-08 | < 1e-08
10 | CN1CCN(Cc2ccc(Nc3ncc4nnn(-c5cccc(CC#N)c5)c4n3)cc2)CC1 [Compound 89] |  | 1e-08 to 1e-07 | < 1e-08
11 | CN1CCN(c2ccc(Nc3ncc4nnn(-c5cccc(CCO)c5)c4n3)cc2)CC1 [Compound 77] |  | < 1e-08 | < 1e-08
12 | N#CNc1nccc(-c2cccc(Nc3ncc4nnn(-c5cccc(F)c5)c4n3)c2)n1 [Compound 35] |  | < 1e-08 | < 1e-08
13 | Brc1cccc(-n2nnc3cnc(Nc4cccc(-c5ccn[nH]5)c4)nc32)c1 [Compound 44] |  | 1e-08 to 1e-07 | < 1e-08
14 | Brc1cccc(-n2nnc3cnc(Nc4cccc(C5=NCNC5)c4)nc32)c1 [Compound 43] |  | < 1e-08 | < 1e-08
15 | Cn1cc(Br)c(-c2cccc(Nc3ncc4nnn(-c5cccc(F)c5)c4n3)c2)n1 [Compound 25] |  | 1e-08 to 1e-07 | 1e-08 to 1e-07
16 | N#CCc1cccc(-n2nnc3cnc(Nc4cccc(-c5cnco5)c4)nc32)c1 [Compound 86] |  | < 1e-08 | < 1e-08
17 | CN1CCN(CCCOc2ccc(Nc3ncc4nnn(-c5cccc(CCO)c5)c4n3)cc2)CC1 [Compound 83] |  | < 1e-08 | < 1e-08

Row | SMILES | melting point [°C] | IC50 (GSK3β) [M] | IC50 (GSK3alpha) [M]
18 | Brc1cccc(-n2nnc3cnc(Nc4ccc(-c5nnn[nH]5)cc4)nc32)c1 [Compound 52] |  | < 1e-08 | < 1e-08
19 | COc1cccc(-n2nnc3cnc(Nc4cccc(-c5cnco5)c4)nc32)c1 [Compound 16] |  | < 1e-08 | < 1e-08
20 | CN1CCN(CCCOc2ccc(Nc3ncc4nnn(-c5cccc(CC#N)c5)c4n3)cc2)CC1 [Compound 94] |  | < 1e-08 | < 1e-08
21 | Brc1cccc(-n2nnc3cnc(Nc4ccc(Nc5ncccn5)cc4)nc32)c1 [Compound 54] |  | 1e-08 to 1e-07 | < 1e-08
22 | OCCc1cccc(-n2nnc3cnc(Nc4ccc(CN5CCC(O)CC5)cc4)nc32)c1 [Compound 79] |  | < 1e-08 | < 1e-08
23 | Cn1nccc1-c1cccc(Nc2ncc3nnn(-c4cccc(F)c4)c3n2)c1 [Compound 23] |  | < 1e-08 | < 1e-08
24 | O=c1[nH]nc(-c2cccc(Nc3ncc4nnn(-c5cccc(Br)c5)c4n3)c2)[nH]1 [Compound 46] |  | 1e-08 to 1e-07 | < 1e-08
25 | Brc1cccc(-n2nnc3cnc(Nc4ccc(-c5cc[nH]n5)cc4)nc32)c1 [Compound 50] |  | 1e-08 to 1e-07 | < 1e-08
26 | Fc1cccc(-n2nnc3cnc(Nc4cccc(-c5cc[nH]n5)c4)nc32)c1 [Compound 22] |  | < 1e-08 | < 1e-08
27 | c1ccc(-n2nnc3cnc(Nc4cccc(-c5cnco5)c4)nc32)cc1 [Compound 73] |  | < 1e-08 | < 1e-08
28 | Nc1nccc(-c2cccc(Nc3ncc4nnn(-c5cccc(F)c5)c4n3)c2)n1 [Compound 33] |  | < 1e-08 | < 1e-08
29 | Brc1cccc(-n2nnc3cnc(Nc4cccc(C5=NCNC5)c4)nc32)c1 (as salt: HCl) [Compound 43] | > 260 |  | 
30 | Fc1cccc(-n2nnc3cnc(Nc4ccc(-c5cnco5)cc4)nc32)c1 [Compound 38] |  | 1e-08 to 1e-07 | 1e-08 to 1e-07
31 | Fc1cccc(-n2nnc3cnc(Nc4cccc(-c5cccnc5)c4)nc32)c1 [Compound 30] | 208 to 212 | < 1e-08 | < 1e-08
32 | Cc1nccc(-c2cccc(Nc3ncc4nnn(-c5cccc(F)c5)c4n3)c2)n1 [Compound 32] |  | < 1e-08 | < 1e-08
33 | Cn1nnc(-c2ccc(Nc3ncc4nnn(-c5cccc(F)c5)c4n3)cc2)n1 [Compound 42] |  | < 1e-08 | 1e-08 to 1e-07
34 | Fc1cccc(-n2nnc3cnc(Nc4cccc(-c5cnccn5)c4)nc32)c1 [Compound 2] | > 260 | < 1e-08 | < 1e-08

Second part, the compound after the results:

Row | melting point [°C] | IC50 (GSK3β) [M] | IC50 (GSK3alpha) [M] | SMILES
35 | 210 to 214 | < 1e-08 | < 1e-08 | COCC(=O)NCc1cccc(-n2nnc3cnc(Nc4cccc(-c5cnco5)c4)nc32)c1 [Compound 122]
36 | > 250 |  |  | NCc1cccc(-n2nnc3cnc(Nc4cccc(-c5cnco5)c4)nc32)c1 (as salt: HCl) [Compound 114]
37 | 156 to 160 | < 1e-08 | < 1e-08 | CC(=O)NCc1cccc(-n2nnc3cnc(Nc4cccc(-c5cnco5)c4)nc32)c1 [Compound 115]
38 |  | < 1e-08 | < 1e-08 | Nc1nccc(-c2cccc(Nc3ncc4nnn(-c5cccc(CO)c5)c4n3)c2)n1 [Compound 97]
39 |  | < 1e-08 | < 1e-08 | Fc1cccc(-n2nnc3cnc(Nc4ccc(-c5nn[nH]n5)cc4)nc32)c1 [Compound 138]
40 |  | < 1e-08 | < 1e-08 | COCCOCc1cccc(-n2nnc3cnc(Nc4ccc(C(=O)N5CCN(C)CC5)cc4)nc32)c1 [Compound 111]
41 |  | < 1e-08 | < 1e-08 | COCc1cccc(-n2nnc3cnc(Nc4ccc(C(=O)NCCN5CCOCC5)cc4)nc32)c1 [Compound 104]
42 |  | 1e-08 | < 1e-08 | COCc1cccc(-n2nnc3cnc(Nc4ccc(OCCCN5CCN(C)CC5)cc4)nc32)c1 [Compound 106]
43 |  | 1e-08 to 1e-07 | < 1e-08 | COCCOc1cccc(-n2nnc3cnc(Nc4ccc(C(=O)NCCN5CCOCC5)cc4)nc32)c1 [Compound 134]
44 |  | < 1e-08 | < 1e-08 | COCC(=O)NCc1cccc(-n2nnc3cnc(Nc4ccc(-c5cnco5)cc4)nc32)c1 [Compound 123]
45 |  | < 1e-08 | < 1e-08 | COCc1cccc(-n2nnc3cnc(Nc4cccc(-c5nnnn5C)c4)nc32)c1 [Compound 99]
46 |  | 1e-08 to 1e-07 | 1e-08 to 1e-07 | COc1cccc(-n2nnc3cnc(Nc4cccc(N5CCN(C)CC5)c4)nc32)c1 [Compound 129]
47 |  | < 1e-08 | < 1e-08 | Nc1nccc(-c2cccc(Nc3ncc4nnn(-c5cccc(S(N)(=O)=O)c5)c4n3)c2)n1 [Compound 147]
48 |  | < 1e-08 | 1e-08 to 1e-07 | COCCOCc1cccc(-n2nnc3cnc(Nc4ccc(N5CCN(C)CC5)cc4)nc32)c1 [Compound 108]
49 |  | 1e-08 to 1e-07 | 1e-08 to 1e-07 | COCCOCc1cccc(-n2nnc3cnc(Nc4ccc(CN5CCC(O)CC5)cc4)nc32)c1 [Compound 110]
50 |  | 1e-08 to 1e-07 | < 1e-08 | CN1CCN(CCOc2ccc(Nc3ncc4nnn(-c5cccc(F)c5)c4n3)cc2)CC1 [Compound 140]
51 |  | 1e-08 to 1e-07 | < 1e-08 | COc1cccc(-n2nnc3cnc(Nc4cccc(-c5nnn[nH]5)c4)nc32)c1 [Compound 127]
52 |  | 1e-08 to 1e-07 | < 1e-08 | CN1CCN(CCCOc2ccc(Nc3ncc4nnn(-c5cccc(F)c5)c4n3)cc2)CC1 [Compound 143]
53 |  | 1e-08 to 1e-07 | 1e-08 to 1e-07 | COCCOc1cccc(-n2nnc3cnc(Nc4ccc(CN5CCN(C)CC5)cc4)nc32)c1 [Compound 131]
54 |  | 1e-08 | < 1e-08 | Cn1nnnc1-c1cccc(Nc2ncc3nnn(-c4cccc(S(N)(=O)=O)c4)c3n2)c1 [Compound 146]
